Experimental data reported in ChEMBL document CHEMBL1687939 (J Med Chem, 2011).
Calls of active or inactive are those of the source. The rule behind the calls is not given here.

Key:
Carbonic anhydrase 12 = Carbonic anhydrase 12 (Homo sapiens, UniProt O43570)
Description: Inhibition of tumor-associated human carbonic anhydrase 12 preincubated for 15 min by CO2 hydration assay

Carbonic anhydrase 9 = Carbonic anhydrase 9 (Homo sapiens, UniProt Q16790)
Description: Inhibition of tumor-associated human carbonic anhydrase 9 preincubated for 15 min by CO2 hydration assay

Carbonic anhydrase 1 = Carbonic anhydrase 1 (Homo sapiens, UniProt P00915)
Description: Inhibition of human cytosolic carbonic anhydrase 1 preincubated for 15 min by CO2 hydration assay

Mus musculus [1] = experiment: Toxicity in BALB/c mouse assessed as body weight loss at 15 to 30 mg/kg, ip qd for 5 days; format: organism-based; parameters: dose 15-30 mg/kg, route intraperitoneal; conditions: in vivo, 120 h
4T1 [2] = experiment: Antimetastatic activity against mouse 4T1 cells expressing luciferase xenografted in BALB/c mouse assessed as reduction in metastasic burden in lungs at 15 to 30 mg/kg, ip qd administered 24 hrs after challenge for 5 days measured 24 hrs post last dose by bioluminescent technique relative to control; format: functional, organism-based
4T1 [3] = experiment: Antimetastatic activity against mouse 4T1 cells expressing luciferase xenografted in BALB/c mouse assessed as limiting colonization of the cells in the lungs at 15 to 45 mg/kg, ip administered as 3 doses on alternate days measured 24 hrs post last dose by bioluminescent technique relative to control; format: functional, organism-based
Mus musculus [4] = experiment: Toxicity in BALB/c mouse assessed as body weight loss at 15 to 45 mg/kg, ip qd administered as 3 doses on alternate days; format: organism-based; parameters: dose 15-45 mg/kg, route intraperitoneal; conditions: in vivo

Chain of Carbonic anhydrase 12 (O43570 whole entry): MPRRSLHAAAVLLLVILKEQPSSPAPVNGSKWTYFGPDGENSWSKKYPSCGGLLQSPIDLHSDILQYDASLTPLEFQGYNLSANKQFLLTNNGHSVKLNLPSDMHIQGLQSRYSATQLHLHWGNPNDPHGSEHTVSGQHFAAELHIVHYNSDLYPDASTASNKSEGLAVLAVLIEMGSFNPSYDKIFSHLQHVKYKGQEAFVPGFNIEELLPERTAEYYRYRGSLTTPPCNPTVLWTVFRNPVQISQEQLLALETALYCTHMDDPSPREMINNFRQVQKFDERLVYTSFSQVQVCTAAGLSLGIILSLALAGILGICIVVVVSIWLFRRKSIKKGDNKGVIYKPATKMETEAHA
Chain of Carbonic anhydrase 1 (P00915 whole entry): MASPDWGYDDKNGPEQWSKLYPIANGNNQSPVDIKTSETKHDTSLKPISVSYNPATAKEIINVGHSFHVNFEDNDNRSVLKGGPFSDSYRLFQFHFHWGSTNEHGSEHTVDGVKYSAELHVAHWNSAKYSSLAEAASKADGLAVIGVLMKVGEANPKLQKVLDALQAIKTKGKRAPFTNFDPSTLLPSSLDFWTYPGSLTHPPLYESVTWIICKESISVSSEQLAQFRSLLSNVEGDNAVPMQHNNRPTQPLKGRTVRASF

Row | SMILES | Ki (Carbonic anhydrase 12) [nM] | Ki (Carbonic anhydrase 9) [nM] | also measured
1 | COc1ccccc1NC(=O)Nc1ccc(S(N)(=O)=O)cc1 | 61.2 | 465 | Ki (Carbonic anhydrase 1): 92 nM
2 | NS(=O)(=O)c1ccc(NC(=O)Nc2ccc(Oc3ccccc3)cc2)cc1 | 7.1 | 69.1 | Ki (Carbonic anhydrase 1): 604 nM
3 | N#Cc1ccc(NC(=O)Nc2ccc(S(N)(=O)=O)cc2)cc1 | 6.5 | 6 | Ki (Carbonic anhydrase 1): 57 nM
4 | NS(=O)(=O)c1ccc(NC(=O)Nc2ccc(Br)cc2)cc1 | 7.9 | 69.3 | 
5 | COc1ccc(NC(=O)Nc2ccc(S(N)(=O)=O)cc2)c(C)c1 | 6 |  | 
6 | NS(=O)(=O)c1ccc(NC(=O)Nc2cccc([N+](=O)[O-])c2)cc1 |  | 0.9 | Activity (4T1 [3]): Dose-dependent effect; Activity (Mus musculus [4]): Non-toxic
7 | CC(C)c1ccc(NC(=O)Nc2ccc(S(N)(=O)=O)cc2)cc1 | 49.7 | 541 | 
8 | NS(=O)(=O)c1ccc(NC(=O)Nc2ccc(Cl)cc2)cc1 | 5.3 |  | 
9 | CCCCc1ccc(NC(=O)Nc2ccc(S(N)(=O)=O)cc2)cc1 | 28.5 | 376 | 

More lines, main results first:

Row | Ki (Carbonic anhydrase 12) [nM] | Ki (Carbonic anhydrase 9) [nM] | SMILES | also measured
10 | 4.3 | 24.5 | NS(=O)(=O)c1ccc(NC(=O)Nc2ccc(I)cc2)cc1 | 
11 | 4.2 | 0.5 | CC(C)c1ccccc1NC(=O)Nc1ccc(S(N)(=O)=O)cc1 | 
12 | 2.5 | 0.8 | CCCCOc1ccc(NC(=O)Nc2ccc(S(N)(=O)=O)cc2)cc1 | 
13 | 4.6 |  | CC(=O)c1ccc(NC(=O)Nc2ccc(S(N)(=O)=O)cc2)cc1 | Activity (Mus musculus [1]): Non-toxic; Activity (4T1 [2]): inactive
14 | 4.6 | 0.3 | N#Cc1ccccc1NC(=O)Nc1ccc(S(N)(=O)=O)cc1 | Ki (Carbonic anhydrase 1): 10.9 nM
